In brackets after ≈: the same amount, converted by molar mass. Blank lines part the entries; values can stand above or below the compound they belong to.
Assays:
Assay in all cases: ≥ marks a high value that may be exact or a test limit, other limits are often not marked, values filed in µg/mL are converted to µM
[1] = system: Bacillus subtilis KCTC 3068
[2] = system: Escherichia coli DSM 1103
[3] = system: Escherichia coli KCTC 1682
[4] = system: Pseudomonas aeruginosa DSM 1117
[5] = system: Pseudomonas aeruginosa KCTC 1637
[6] = system: Salmonella typhimurium KCTC 1926
[7] = system: Staphylococcus aureus DSM 1104
[8] = system: Staphylococcus aureus KCTC 1621
[9] = system: Staphylococcus epidermidis DSM 1798
[10] = system: Staphylococcus epidermidis KCTC 1917
[11] = system: Listeria fleischmannii DSM 24998
Listeria grayi DSM 20601 = system: Listeria grayi DSM 20601
[12] = system: Listeria monocytogenes DSM 20600
[13] = system: Micrococcus luteus DSM 20030
Acinetobacter baumannii = system: Acinetobacter baumannii
Enterococcus faecalis = system: Enterococcus faecalis
Pseudomonas aeruginosa 1 = system: Pseudomonas aeruginosa 1
Pseudomonas aeruginosa = system: Pseudomonas aeruginosa
Staphylococcus aureus = system: Staphylococcus aureus
[14] = system: Candida albicans ATCC 10231
[15] = system: Cryptococcus neoformans ATCC 32264
[16] = system: Escherichia coli ATCC 25922
Escherichia coli = system: Escherichia coli
[17] = system: Pseudomonas aeruginosa ATCC 27853
[18] = system: Salmonella enterica subsp. enterica serovar Enteritidis
Salmonella sp. = system: Salmonella sp.
[19] = system: Staphylococcus aureus ATCC 29213
[20] = system: Staphylococcus aureus ATCC 43300
Yersinia enterocolitica = system: Yersinia enterocolitica
Escherichia coli D31 = system: Escherichia coli D31
[21] = system: Bacillus subtilis DSM 347
[22] = system: Escherichia coli DH5alpha
[23] = system: Franconibacter helveticus DSM 18396
[24] = system: Kocuria rhizophila DSM 348
[25] = system: Staphylococcus aureus ATCC 33591

SMILES: NCCCC[C@H](NC(=O)[C@H](CCCN=C(N)N)NC(=O)CN)C(=O)N[C@@H](CCCCN)C(=O)N[C@@H](CCCN=C(N)N)C(=O)N[C@@H](CCCN=C(N)N)C(=O)N[C@@H](CCC(N)=O)C(=O)N[C@@H](CCCN=C(N)N)C(=O)N[C@@H](CCCN=C(N)N)C(=O)N[C@@H](CCCN=C(N)N)C(=O)N1CCC[C@H]1C(=O)N1CCC[C@H]1C(=O)N[C@@H](CCC(N)=O)C(=O)O [GRKKRRQRRRPPQ]
- MIC [1]: 4 µM (≈ 6.88 µg/mL)
- MIC [2]: ≥ 128 µM
- MIC [3]: 2 µM (≈ 3.44 µg/mL)
- MIC [4]: ≥ 128 µM
- MIC [5]: 4 µM (≈ 6.88 µg/mL)
- MIC [6]: 8 µM (≈ 13.8 µg/mL)
- MIC [7]: ≥ 128 µM
- MIC [8]: 4 µM (≈ 6.88 µg/mL)
- MIC [9]: ≥ 128 µM
- MIC [10]: 4 µM (≈ 6.88 µg/mL)

SMILES: CC(C)C[C@H](NC(=O)[C@H](CC(C)C)NC(=O)[C@H](CCCCN)NC(=O)[C@H](CCCCN)NC(=O)[C@H](CC(C)C)NC(=O)[C@H](CCCCN)NC(=O)[C@H](CCCCN)NC(=O)[C@H](CC(C)C)NC(=O)[C@H](CC(C)C)NC(=O)[C@H](CCCCN)NC(=O)[C@H](CCCN=C(N)N)NC(=O)[C@H](Cc1c[nH]c2ccccc12)NC(=O)[C@H](CCCCN)NC(=O)[C@@H](N)CCCCN)C(N)=O [KKWRKLLKKLKKLL]
- MIC (Acinetobacter baumannii): 0.548 µM (≈ 0.999 µg/mL)
- MIC (Enterococcus faecalis): 0.658 µM (≈ 1.2 µg/mL)
- MIC (Pseudomonas aeruginosa 1): 1.55 µM (≈ 2.83 µg/mL)
- MIC (Pseudomonas aeruginosa): 0.548 µM (≈ 0.999 µg/mL)
- MIC (Staphylococcus aureus): 1.1 µM (≈ 2 µg/mL)

SMILES: CC[C@H](C)[C@H](NC(=O)[C@H](CCC(N)=O)NC(=O)[C@@H](N)CCCN=C(N)N)C(=O)N[C@@H](CCCN=C(N)N)C(=O)N[C@@H](CCCN=C(N)N)C(=O)N[C@@H](Cc1c[nH]c2ccccc12)C(=O)N[C@@H](Cc1c[nH]c2ccccc12)C(=O)N[C@@H](CCC(N)=O)C(=O)N[C@@H](CCCN=C(N)N)C(N)=O [RQIRRWWQR]
- MIC [14]: 10 µM (≈ 13.8 µg/mL)
- MIC [15]: 25 µM (≈ 34.6 µg/mL)
- MIC [16]: 18.1 µM (≈ 25 µg/mL)
- MIC (Escherichia coli): 9.03 µM (≈ 12.5 µg/mL)
- MIC [17]: > 50 µM
- MIC [18]: 18.1 µM (≈ 25 µg/mL)
- MIC (Salmonella sp.): 18.1 µM (≈ 25 µg/mL)
- MIC [19]: 36.1 µM (≈ 50 µg/mL)
- MIC [20]: 18.1 µM (≈ 25 µg/mL)
- MIC (Yersinia enterocolitica): 18.1 µM (≈ 25 µg/mL)

SMILES: CC(C)C[C@H](NC(=O)[C@H](C)NC(=O)[C@H](CCCN=C(N)N)NC(=O)[C@H](CC(C)C)NC(=O)[C@H](C)NC(=O)[C@H](CC(C)C)NC(=O)[C@H](CCCN=C(N)N)NC(=O)[C@H](CC(C)C)NC(=O)[C@H](C)NC(=O)[C@H](CC(C)C)NC(=O)[C@@H](N)CCCN=C(N)N)C(=O)N[C@@H](CCCN=C(N)N)C(=O)N[C@@H](C)C(=O)N[C@@H](C)C(=O)N[C@@H](CC(C)C)C(=O)N[C@@H](CCCN=C(N)N)C(=O)N[C@@H](CC(C)C)C(=O)N[C@@H](C)C(N)=O [RLALRLALRALRAALRLA]
- MIC [2]: ≥ 57 µM
- MIC [4]: ≥ 115 µM
- MIC [7]: 29 µM (≈ 58.5 µg/mL)
- MIC [9]: 4 µM (≈ 8.07 µg/mL)

More lines, now with the values ahead:

- MIC [11]: 15 µM (≈ 24.9 µg/mL)
- MIC (Listeria grayi DSM 20601): 8 µM (≈ 13.3 µg/mL)
- MIC [12]: 30 µM (≈ 49.7 µg/mL)
- MIC [13]: 2 µM (≈ 3.31 µg/mL)
SMILES: CC[C@H](C)[C@H](NC(=O)[C@H](C)NC(=O)[C@H](CCCCN)NC(=O)[C@H](CCCCN)NC(=O)[C@@H](NC(=O)[C@@H]1CCCN1C(=O)[C@H](CCCCN)NC(=O)[C@H](Cc1c[nH]c2ccccc12)NC(=O)[C@H](CC(C)C)NC(=O)[C@H](CCCCN)NC(=O)CNC(=O)[C@H](Cc1c[nH]c2ccccc12)NC(=O)[C@H](Cc1ccccc1)NC(=O)CN)C(C)C)C(N)=O [GFWGKLWKPVKKAI]

- MIC (Escherichia coli D31): 4 µM (≈ 7.95 µg/mL)
- MIC [11]: 1 µM (≈ 1.99 µg/mL)
- MIC (Listeria grayi DSM 20601): 1 µM (≈ 1.99 µg/mL)
- MIC [12]: 2 µM (≈ 3.98 µg/mL)
- MIC [13]: 0.25 µM (≈ 0.497 µg/mL)
SMILES: CC[C@H](C)[C@H](NC(=O)[C@H](C)NC(=O)[C@H](CC(N)=O)NC(=O)[C@H](CCCCN)NC(=O)[C@@H](NC(=O)CNC(=O)[C@H](CCC(=O)O)NC(=O)[C@H](Cc1c[nH]c2ccccc12)NC(=O)[C@H](CC(C)C)NC(=O)[C@H](CCCCN)NC(=O)CNC(=O)[C@H](Cc1c[nH]c2ccccc12)NC(=O)[C@H](Cc1ccccc1)NC(=O)CN)C(C)C)C(=O)N[C@@H](CCCCN)C(=O)N[C@@H](CCCCN)C(=O)N[C@@H](CCCCN)C(N)=O [GFWGKLWEGVKNAIKKK]

- MIC [21]: ≥ 32 µM
- MIC [22]: ≥ 128 µM
- MIC [23]: ≥ 128 µM
- MIC [24]: ≥ 256 µM
SMILES: CC[C@H](C)[C@H](NC(=O)CN)C(=O)NCC(=O)N[C@@H](CCCCN)C(=O)N[C@@H](Cc1ccccc1)C(=O)N[C@@H](C)C(=O)N[C@@H](Cc1cnc[nH]1)C(=O)N[C@@H](CO)C(=O)N[C@@H](C)C(=O)N[C@@H](CCCCN)C(=O)N[C@@H](CCCCN)C(=O)N[C@@H](Cc1ccccc1)C(=O)NCC(=O)N[C@@H](CCCCN)C(=O)N[C@@H](C)C(=O)N[C@@H](Cc1ccccc1)C(=O)N[C@H](C(=O)NCC(=O)N[C@@H](CCC(=O)O)C(=O)N[C@H](C(=O)N[C@@H](CCSC)C(=O)N[C@@H](CC(N)=O)C(=O)N[C@@H](CO)C(=O)O)[C@@H](C)CC)C(C)C [GIGKFAHSAKKFGKAFVGEIMNS]

- MIC [14]: 100 µM (≈ 236 µg/mL)
- MIC [15]: ≥ 50 µM
- MIC (Escherichia coli): 25 µM (≈ 58.9 µg/mL)
- MIC [17]: > 50 µM
- MIC [18]: 25 µM (≈ 58.9 µg/mL)
- MIC (Salmonella sp.): ≥ 50 µM
- MIC [19]: > 50 µM
- MIC [25]: 16 µM (≈ 37.7 µg/mL)
- MIC [20]: > 50 µM
- MIC (Yersinia enterocolitica): ≥ 50 µM
SMILES: CC[C@H](C)[C@H](NC(=O)[C@H](CCCNC(=N)N)NC(=O)[C@@H](NC(=O)[C@H](CCC(N)=O)NC(=O)[C@@H](N)CCCNC(=N)N)[C@@H](C)CC)C(=O)N[C@@H](Cc1c[nH]c2ccccc12)C(=O)N[C@@H](Cc1ccccc1)C(=O)N[C@@H](CCC(N)=O)C(=O)N[C@@H](CC(N)=O)C(=O)N[C@@H](CCCNC(=N)N)C(=O)N[C@@H](CCCNC(=N)N)C(=O)N[C@@H](CCSC)C(=O)N[C@@H](CCCNC(=N)N)C(=O)N[C@@H](Cc1c[nH]c2ccccc12)C(=O)N[C@@H](CCCNC(=N)N)C(=O)N[C@@H](CCCNC(=N)N)C(N)=O [RQIRIWFQNRRMRWRR]

From DBAASP
